Results taken from patent US9938240B2, “Fluorinated derivatives of 3-hydroxypyridin-4-ones” (Apotex Technologies Inc., priority 2009, dated 2018).
Like-named read-outs stand apart in the source and are kept apart here.

Legend:
[1] = Oral cassette dosing PK/BBB studies; assay type: in vivo, male Sprague-Dawley rats; settings: oral cassette dosing
Protocol: In-vivo pharmacokinetic (PK) and blood brain barrier (BBB) studies were conducted in male Sprague-Dawley rats using cassette dosing via oral administration. […] No. 15, pp. 652-658.

[2] = system: SH-SY5Y human neuroblastoma cells; settings: for CC2 (cytotoxic concentration): H2O2-treated cells, viability below 80%; for CC1 (cytotoxic concentration): absence of H2O2, viability below 80%
Excerpt: Hydrogen peroxide (H2O2) is a major ROS (reactive oxidative species), which causes oxidative stress, and can induce apoptosis in many different cell types. One of the CNS drug design strategies is to use compounds with antioxidant properties as a possible treatment of both acute and chronic neurodegenerative diseases (Kang et al. Bioorganic & Medicinal Chemistry Letters, 2004, 14, 2261-2264). This involves testing the compounds of this invention for their protective effect against oxidative stress-induced cell death in SH-SY5Y human neuroblastoma cells. SH-SY5Y human neuroblastoma cells were cultured in DMEM (ATCC)/F12 (Cellgro) with 10% FBS. The cells were plated at 30,000 cells/cm^2 and grown for 1 day in the regular culture media prior to compound addition. Cells were routinely treated with the test compound, at a pre-determined range of concentrations, in the presence or absence of 50 μM hydrogen peroxide in a basal medium containing no FBS for 16-22 h. Cell viability was then measured using the routine MTT method (Mosmann, T., Rapid Colorimetric Assay for Cellular Growth and Survival: Application to Proliferation and Cytotoxicity Assays”. J. Immunol. Meth. 1983, 65, 55-63).
For data analysis, cell viability relative to control not treated with either H2O2 or the test compound, was plotted against the compound concentration. […] Cytotoxicity of the test compound was assessed in the absence of hydrogen peroxide.

[3] = Distribution coefficient determination, D7.4 (1-octanol / K2HPO4 buffer); assay type: physicochemical; settings: 1-octanol / K2HPO4 buffer 50 mM pH 7.4
Protocol: K2HPO4 buffer (50 mM, pH=7.4) and 1-octanol were used as the aqueous phase and the organic phase, respectively. The K2HPO4 buffer and 1-octanol were mixed, and pre-saturated with each other before use.
In a typical experiment, an aqueous solution of Apo6995 (3-hydroxy-2-methyl-1-(2,2,2-trifluoroethyl)pyridin-4(1H)-one) was prepared by weighing out 3 mg of the compound into a 10-mL test-tube. It was then mixed with K2HPO4 buffer (2 mL) and sonicated for 30 minutes with frequent vortexing. The solution was then filtered through HPLC syringe filter (4 mm PVDF syringe filter 0.45 μM) to obtain the aqueous solution.
One mL of this aqueous solution was pipetted out into another 10-mL test-tube and mixed with 1 mL of 1-octanol. The mixture was then vortexed for 1 hour. The solution was centrifuged at 2000 rpm for 10 minutes. A small amount of the lower aqueous layer was carefully pipetted out and analyzed by HPLC to obtain the peak height (HF). The distribution coefficient, D7.4, was calculated using the following equation: D7.4=(HI−HF)/HF.

[4] = system: human neuroblastoma MC-65 cells; test: cells; settings: for EC100 / minimal effective concentration: Homo sapiens, MC65, 48 h; for EC100: read-out: EC100 (maximum effective concentration); for minimal effective concentration: read-out: TH (threshold protective concentration); for CC2 (cytotoxic concentration): MC-65, cultured without tetracycline; for CC2 (cytotoxic concentration) / CC1 (cytotoxic concentration): viability below 80%; for CC1 (cytotoxic concentration): MC-65, presence of TET
Protocol: In this assay, human neuroblastoma cells (MC-65 cells) are genetically engineered to conditionally express amyloid β peptide (Aβ). The Aβ production is suppressed by tetracycline (TET+) presence in culture medium, and its production is activated when TET is withdrawn (TET−). The activation of Aβ production results in cell death “MC-65 suicide”.
Protective effect of compounds against edogenously produced amyloid beta (Aβ) was assessed in human neuroblastoma MC-65 cells. MC-65 cells have been stably transformed to conditionally express high levels of a partial amyloid precursor (AP) fusion protein (Bryce Sopher et al., Brain Res Mol Brain Res. 1994, 207-17.). This protein is further proteolitically processed in the cells to form a set of AP-derived Aβ peptides. […] Activity of the promoter is tightly regulated by the presence of the antibiotic tetracycline (TET) in the culture medium. In the presence of TET (TET+), the promoter is in the basal state and no amyloid beta peptide is synthesized. In the absence of TET (TET−) the promoter is in induced state, resulting in the accumulation of Aβ peptides in the cells, degenerative changes in cell morphology and decreased survival.
Transfected human neuroblastoma cells (MC-65) were cultured in DMEM (ATCC) supplemented with non-essential amino acids and 10% FBS (VWR) in the presence of TET (1 μg/mL). For the experiment, the cells were plated at 35,000 cells/cm^2 and grown for 1 day in the regular culture media prior to compound addition. On the day of the assay, culture supernatant was removed from the wells and cells were thoroughly washed once with the compound incubation matrix containing no FBS and no TET. MC-65 cells were treated with a test compound at pre-determined range of concentrations in a basal medium containing no FBS and in the absence or presence of 1 μg/mL TET for approximately 48 h. Cell viability was then measured using the MTT method.
For data analysis, cell viabilities relative to the control not treated with a test compound and maintained in the presence of TET were plotted against the compound concentration. […] Cytotoxicity of the test compound was assessed in the cells maintained in the presence of TET.

[5] = Benzoic acid hydroxylation assay; settings: benzoic acid 1 mM, H2O2 6 mM, FeCl3 30 μM, chelator 30 μM, pH 7.4, up to 81 h
Excerpt: Benzoic acid is a hydroxyl radical scavenger and reacts with hydroxyl radical to give 2-hydroxy, 3-hydroxy and 4-hydroxybenzoic acids. The benzoic acid hydroxylation assay is a chemical assay designed to detect damage caused by hydroxyl radical (Dean and Nicholson, Free Radical Research 1994, vol 20, 83-101). For example, deferiprone suppresses the formation of hydroxybenzoic acids in the presence of iron salts and hydrogen peroxide, while EDTA and iron salts allow such hydroxylation reactions to take place.
This screening assay involves the use of iron salt, benzoic acid, hydrogen peroxide and the chelator and measures the ability of the chelator to inhibit the formation of hydroxybenzoate as an indicator to prevent hydroxyl radical formation in living system.
Briefly, this procedure is based on the ability of hydroxyl radicals to hydroxylate benzoate to give 2-, 3- and 4-hydroxylated benzoic acid products. Benzoic acid (1 mM) is incubated over time up to 81 h at room temperature in the dark in 10 mM phosphate buffer (pH 7.4) with 6 mM hydrogen peroxide, ferric chloride (30 μM) and the Fe chelator (30 μM). HPLC is the method of choice used to monitor and quantify the amount of 2-, 3- and 4-hydroxylated products formed over time in the reaction mixture, and can be verified against authentic benzoic acid and its hydroxylated products via their respective retention times and areas under curve. In addition, several controls are used: (i) a control without added Fe stock solution and Fe chelator; (ii) a control without added Fe chelator; (iii) EDTA as positive control; and (iv) deferiprone as negative control. The Fe-EDTA system is a hydroxyl radical generator and is known to promote hydroxylation of benzoic acid.

[6] = Pharmacokinetics following oral administration to rats; assay type: in vivo, male Sprague Dawley rats; settings: rat, oral 50 mg/kg in 0.5% CMC; for Brain AUC_D_obs / Brain Cmax_D / Plasma AUC_D_obs / Plasma Cmax_D: dose-normalized
Protocol: Adult male Sprague Dawley rats (275-325 g, Charles River Laboratories, Saint Constant, Quebec) were orally dosed with 50 mg/kg of test compound (Apo7323, Apo7433, Apo7435 or Apo7448) suspended in 0.5% carboxymethylcellulose (CMC) in water. For each test compound, samples were obtained from the plasma and brain of three animals per time point, at 0 (dosed with 0.5% CMC), 0.25, 0.5, 1, 2, 4, 8 and 12 h following administration. The concentration of the compound in rat plasma and brain samples was determined by HPLC-UV. Pharmacokinetic parameters were computed using the PKPlus Module in GastroPlus® ver. 8.0 (Simulations Plus Inc., Lancaster, Calif.). Calculation method: linear trapezoidal with linear interpolation.

[7] = Cyclic voltammetry of iron complexes; assay type: physicochemical; settings: for E1/2 vs. Ag/AgCl / E1/2 vs. NHE / ΔE / Eox / Ered: 0.1M aqueous NaCl; for E1/2 vs. Ag/AgCl / E1/2 vs. NHE / ΔE: pH 7.4; for Eox / Ered: pH 7.4, vs. Ag/AgCl; for redox potential E1/2 (vs. NHE): pH 7.4, as quoted
[8] = cited from earlier work

CCc1c(O)c(=O)ccn1CC(F)(F)F [Apo7030, 2-ethyl-3-hydroxy-1-(2,2,2-trifluoroethyl)pyridin-4(1H)-one]
AUC brain* (cal.) ([1]; rats, normalized to 1 mg/kg, value marked (cal.)): 0.59 cal·µg·h/mL
Kp ([1]; rat, brain and plasma, male Sprague-Dawley rats, read-out: AUC brain/AUC plasma): 1
AUC ([1]; rat, plasma, male Sprague-Dawley rats, AUC normalized to 1 mg/kg dose): 590 ng·h/mL
CC2 (cytotoxic concentration) [2]: >640 µM
CC1 (cytotoxic concentration) [2]: 640 µM
D7.4 [3]: 5.93
logD ([3]; read-out: Log D7.4): 0.77
EC100 [4]: 20 µM
minimal effective concentration [4]: 1 µM
CC2 (cytotoxic concentration) [4]: 40 µM
CC1 (cytotoxic concentration) [4]: 40 µM

CN(C)c1c(O)c(=O)cc(CC(F)(F)F)n1C [Apo7077, 2-(dimethylamino)-3-hydroxy-1-methyl-6-(2,2,2-trifluoroethyl)pyridin-4(1H)-one]
hydroxylation of benzoic acid by Fe chelate [5]: do not promote the hydroxylation of benzoic acid
EC100 [4]: 10 µM
minimal effective concentration [4]: 1 µM
CC2 (cytotoxic concentration) [4]: 80 µM
CC1 (cytotoxic concentration) [4]: 80 µM

Cc1[nH]cc(C(N2CCOCC2)C(F)(F)F)c(=O)c1O (centres unmarked) [Apo7433, 3-hydroxy-2-methyl-5-(2,2,2-trifluoro-1-morpholinoethyl)pyridin-4(1H)-one]
CC2 (cytotoxic concentration) [2]: 320 µM
CC1 (cytotoxic concentration) [2]: 320 µM
EC100 [4]: 10 µM
minimal effective concentration [4]: 1 µM
CC2 (cytotoxic concentration) [4]: 40 µM
CC1 (cytotoxic concentration) [4]: 40 µM
CL [6]: 3.76 L/h/kg
Brain AUC_D_obs [6]: 0.039 kg·µg·h/mL/mg
Brain Cmax_D [6]: 0.400 kg·µg/mL/mg
Plasma AUC_D_obs [6]: 0.860 kg·µg·h/mL/mg
Plasma Cmax_D [6]: 0.396 kg·µg/mL/mg

Cn1ccc(=O)c(O)c1C(N1CCOCC1)C(F)(F)F (centres unmarked) [Apo7448, 3-hydroxy-1-methyl-2-(2,2,2-trifluoro-1-morpholinoethyl)pyridin-4(1H)-one]
CC2 (cytotoxic concentration) [2]: 320 µM
CC1 (cytotoxic concentration) [2]: 80 µM
EC100 [4]: 20 µM
minimal effective concentration [4]: 1 µM
CC2 (cytotoxic concentration) [4]: 40 µM
CC1 (cytotoxic concentration) [4]: 40 µM
CL [6]: 3.12 L/h/kg
Brain AUC_D_obs [6]: 0.486 kg·µg·h/mL/mg
Brain Cmax_D [6]: 0.178 kg·µg/mL/mg
Plasma AUC_D_obs [6]: 1.07 kg·µg·h/mL/mg
Plasma Cmax_D [6]: 0.334 kg·µg/mL/mg

Cc1c([O-])c(=O)ccn1C.Cc1c([O-])c(=O)ccn1C.Cc1c([O-])c(=O)ccn1C.[Fe+3] [Fe(L1)3]
E1/2 vs. Ag/AgCl [7]: −797 mV
E1/2 vs. NHE [7]: −577 mV
ΔE [7]: 89 mV
Eox [7]: −752 mV
Ered [7]: −841 mV
redox potential E1/2 (vs. NHE) [7]: −628 my

CC(=O)N([O-])CCCCCNC(=O)CCC(=O)N([O-])CCCCCNC(=O)CCC(=O)N([O-])CCCCCN.[Fe+3] [FeDFO]
E1/2 vs. Ag/AgCl [7]: −698 mV
E1/2 vs. NHE [7]: −478 mV
ΔE [7]: 112 mV
Eox [7]: −642 mV
Ered [7]: −754 mV
redox potential E1/2 (vs. NHE) [7]: −480 my
E1/2 literature value ([8]; versus Ag/AgCl, Crumbliss et al. 2003): −688 mV

Fe-transferrin: iron bound to the blood protein transferrin
E1/2 vs. Ag/AgCl ([8]; background value): −720 my
E1/2 vs. NHE ([8]; background value): −500 my
